Experimental data taken from the supplement of paper PMC7661543.
± gives the standard deviation of the averaged measurements.

Columns and labels:
Test in all cases: relative cell number vs DMSO control (72 h) (% of DMSO); higher = less growth inhibition (more cells)
Conditions in all cases: sgRNA knockout: sgNT
BT-20 = test system: BT-20
Protocol: (§1)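 QMAP-Seq: a pool of 5 breast cancer cell lines (ZR-75-1, SKBR3, HCC-38, MDA-MB-231, BT-20), each carrying 12 doxycycline-inducible Cas9 sgRNA perturbations (11 knockouts plus non-targeting sgNT), was treated with compounds for 72 h at four 10-fold doses (10 nM-10 uM or 1 nM-1 uM range). Barcodes were amplified and sequenced, and cell number was interpolated from 293T spike-in standard curves. The result is expressed as % of the median of DMSO wells. Two biological replicates.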

HCC-38 = test system: HCC-38
Protocol: as §1

MDA-MB-231 = test system: MDA-MB-231
Protocol: as §1

SKBR3 = test system: SKBR3
Protocol: as §1

ZR-75-1 = test system: ZR-75-1
Protocol: as §1

| SMILES | relative cell number (BT-20; 10 nM) | relative cell number (BT-20; 100 nM) | relative cell number (BT-20; 1000 nM) | relative cell number (BT-20; 10000 nM) | relative cell number (HCC-38; 10 nM) | relative cell number (HCC-38; 100 nM) | relative cell number (HCC-38; 1000 nM) | relative cell number (HCC-38; 10000 nM) | relative cell number (MDA-MB-231; 10 nM) | relative cell number (MDA-MB-231; 100 nM) | relative cell number (MDA-MB-231; 1000 nM) | relative cell number (MDA-MB-231; 10000 nM) | relative cell number (SKBR3; 10 nM) | relative cell number (SKBR3; 100 nM) | relative cell number (SKBR3; 1000 nM) | relative cell number (SKBR3; 10000 nM) | relative cell number (ZR-75-1; 10 nM) | relative cell number (ZR-75-1; 100 nM) | relative cell number (ZR-75-1; 1000 nM) | relative cell number (ZR-75-1; 10000 nM) | relative cell number (BT-20; 1 nM) | relative cell number (HCC-38; 1 nM) | relative cell number (MDA-MB-231; 1 nM) | relative cell number (SKBR3; 1 nM) | relative cell number (ZR-75-1; 1 nM) |
| --- | --- | --- | --- | --- | --- | --- | --- | --- | --- | --- | --- | --- | --- | --- | --- | --- | --- | --- | --- | --- | --- | --- | --- | --- | --- |
| O=c1[nH]cc(F)c(=O)[nH]1 [5-Fluorouracil] | 115 ± 7.9 | 110 ± 3.4 | 78.4 ± 7 | 57.9 ± 2.7 | 95.2 ± 6.8 | 121 ± 15 | 107 ± 21 | 66.2 ± 6.2 | 86.6 ± 16 | 113 ± 28 | 119 ± 16 | 49.2 ± 6.5 | 97.9 ± 14 | 79.7 ± 19 | 65.4 ± 18 | 17.5 ± 3.4 | 103 ± 28 | 83.2 ± 13 | 51.6 ± 1.8 | 41 ± 11 |  |  |  |  |  |
| S=c1nc[nH]c2nc[nH]c12 [6-Mercaptopurine] | 97.8 ± 13 | 101 ± 4.8 | 85.3 ± 6 | 62.7 ± 4.4 | 99.6 ± 7 | 99.7 ± 5.1 | 81.3 ± 10 | 61.3 ± 2.1 | 120 ± 2.9 | 79.8 ± 1.3 | 60.6 ± 15 | 63.5 ± 7.8 | 112 ± 11 | 83.1 ± 39 | 78.3 ± 21 | 48.4 ± 25 | 100 ± 55 | 66.5 ± 5.7 | 100 ± 59 | 55.5 ± 22 |  |  |  |  |  |
| Cc1sc2c(c1C)C(c1ccc(Cl)cc1)=N[C@@H](CC(=O)OC(C)(C)C)c1nnc(C)n1-2 [(+)-JQ1] | 99.3 ± 17 | 108 ± 1.9 | 108 ± 4.7 | 93.5 ± 4 | 104 ± 4.2 | 112 ± 33 | 93.2 ± 1.9 | 65.3 ± 1.1 | 109 ± 30 | 99.7 ± 4 | 105.4 ± 0.35 | 50.7 ± 18 | 102 ± 17 | 119 ± 21 | 91.5 ± 2.7 | 62.6 ± 3.5 | 98.5 ± 22 | 122 ± 50 | 86.2 ± 21 | 49.4 ± 1.2 |  |  |  |  |  |
| CN(C)CC[C@H](CSc1ccccc1)Nc1ccc(S(=O)(=O)NC(=O)c2ccc(N3CCN(Cc4ccccc4-c4ccc(Cl)cc4)CC3)cc2)cc1[N+](=O)[O-] [ABT737] | 93.2 ± 26 | 97.5 ± 10 | 94.8 ± 13 | 69.2 ± 5.1 | 104 ± 3.7 | 84 ± 12 | 88.2 ± 4.7 | 62.5 ± 18 | 96.3 ± 18 | 102 ± 21 | 90.4 ± 30 | 69.4 ± 16 | 84.5 ± 11 | 98.2 ± 4.7 | 85.7 ± 9.8 | 93.31 ± 0.55 | 74.8 ± 17 | 117 ± 40 | 124 ± 25 | 73.9 ± 11 |  |  |  |  |  |
| c1cc(Nc2cc(C3CC3)[nH]n2)nc(Nc2ccc3nc[nH]c3c2)n1 [APY29] | 120 ± 4.3 | 79.9 ± 16 | 88.3 ± 10 | 40.7 ± 5.9 | 91.3 ± 16 | 64.3 ± 3.1 | 26.6 ± 2.5 | 23.3 ± 0.34 | 109 ± 5.4 | 52.8 ± 4.2 | 17.1 ± 3.7 | 10.7 ± 3.8 | 110 ± 9 | 40.6 ± 1.2 | 12.5 ± 6.6 | 5.99 ± 1.9 | 119 ± 26 | 74 ± 39 | 23.6 ± 1.6 | 10.7 ± 9.5 |  |  |  |  |  |
| Clc1ccc(C2(c3ccc(-c4cn[nH]c4)cc3)CCNCC2)cc1 [AT7867] | 79.5 ± 20 | 108 ± 32 | 77.8 ± 12 | 24.8 ± 5.2 | 91.3 ± 5.8 | 64.1 ± 14 | 45.4 ± 2.5 | 50.5 ± 2.3 | 59.5 ± 17 | 84.9 ± 1.7 | 35.9 ± 6 | 14.5 ± 2.1 | 70.8 ± 4.4 | 102 ± 5 | 59.38 ± 0.082 | 10.8 ± 2.8 | 61.2 ± 35 | 64.4 ± 20 | 66.2 ± 5.2 | 11.1 ± 1.7 |  |  |  |  |  |
| COc1cc(CCc2cc(NC(=O)c3ccc(N4CC(C)NC(C)C4)cc3)n[nH]2)cc(OC)c1 (stereo not given) [AZD4547] | 66.6 ± 0.77 | 94.7 ± 4.5 | 81.9 ± 15 | 56.5 ± 2.4 | 88.6 ± 1.6 | 64.5 ± 6.9 | 54.6 ± 1.7 | 46.8 ± 1.9 | 79.2 ± 13 | 100.2 ± 0.6 | 99.5 ± 11 | 40.1 ± 3 | 62.3 ± 26 | 83 ± 9.8 | 94.1 ± 33 | 51 ± 14 | 82.1 ± 31 | 68.3 ± 13 | 83.9 ± 5.3 | 21.3 ± 10 |  |  |  |  |  |
| CN(C)C(=O)c1ccc(S(=O)(=O)c2ccc(NC(=O)[C@@](C)(O)C(F)(F)F)c(Cl)c2)cc1 [AZD7545] | 91.2 ± 24 | 103 ± 25 | 102 ± 22 | 95.7 ± 8.7 | 105 ± 6.3 | 90 ± 14 | 97.8 ± 1.1 | 82.9 ± 1.9 | 103 ± 17 | 121 ± 14 | 104 ± 39 | 89.5 ± 47 | 97.6 ± 9.6 | 103 ± 18 | 95.8 ± 11 | 70.3 ± 10 | 110 ± 7.3 | 116 ± 53 | 91.8 ± 25 | 42.7 ± 5.5 |  |  |  |  |  |
| C[C@@H](Nc1cc(F)cc(F)c1)c1cc(C(=O)N(C)C)cc2c(=O)cc(N3CCOCC3)oc12 [AZD8186] | 103 ± 9.9 | 117 ± 3.5 | 107 ± 23 | 98.3 ± 1.2 | 97.9 ± 24 | 105 ± 19 | 86.8 ± 7.5 | 79.5 ± 7.5 | 109 ± 3.1 | 134 ± 21 | 130 ± 80 | 83.4 ± 28 | 88.2 ± 0.97 | 103 ± 18 | 94.2 ± 6.8 | 59.6 ± 10 | 91.2 ± 19 | 103 ± 1.3 | 66.4 ± 4 | 49.1 ± 22 |  |  |  |  |  |
| C[C@]12CC[C@H](O)CC1=CC[C@@H]1[C@@H]2CC[C@]2(C)C(c3cccnc3)=CC[C@@H]12 [Abiraterone] | 115 ± 6.5 | 118 ± 20 | 116 ± 3.4 |  | 107 ± 4.5 | 104 ± 5.2 | 116 ± 16 |  | 115 ± 3.5 | 99.4 ± 5.8 | 153 ± 19 |  | 118 ± 15 | 114 ± 42 | 114 ± 10 |  | 115 ± 34 | 105 ± 18 | 90.5 ± 55 |  | 109 ± 10 | 109 ± 2.1 | 127 ± 2.9 | 139 ± 37 | 101 ± 16 |
| CN(C)C/C=C/C(=O)Nc1cc2c(Nc3ccc(F)c(Cl)c3)ncnc2cc1O[C@H]1CCOC1 [Afatinib] | 117 ± 13 | 66.9 ± 10 | 82.8 ± 8.8 | 20.2 ± 4.5 | 94.6 ± 18 | 101 ± 22 | 75.7 ± 7.1 | 21.2 ± 1.6 | 151 ± 15 | 77.1 ± 36 | 93.9 ± 5.5 | 15.6 ± 3.4 | 85.2 ± 6.7 | 34.5 ± 13 | 18.7 ± 0.37 | 10.8 ± 1.1 | 103 ± 7.7 | 72.2 ± 40 | 68.8 ± 6.8 | 13 ± 0.97 |  |  |  |  |  |
| COc1cc(Nc2ncc3c(n2)-c2ccc(Cl)cc2C(c2c(F)cccc2OC)=NC3)ccc1C(=O)O [Alisertib] | 92.5 ± 23 | 66.5 ± 8 | 77.8 ± 24 | 68.3 ± 5.7 | 99.89 ± 0.26 | 53.9 ± 1 | 57.4 ± 9.7 | 48.4 ± 1.9 | 112 ± 7.3 | 50.3 ± 15 | 59.5 ± 1.8 | 49.3 ± 8.4 | 121 ± 14 | 80.8 ± 8.3 | 77.2 ± 11 | 91.2 ± 9.5 | 82.4 ± 36 | 39.4 ± 3.1 | 42 ± 10 | 35.2 ± 1.5 |  |  |  |  |  |
